Measurements from US11459327B1, “Cycloalkyl and hetero-cycloalkyl inhibitors, preparation methods therefor, and use thereof” (Suzhou Zelgen Biopharmaceuticals Co., Ltd., priority 2019, dated 2022).

Legend:
[1] = tested on: NCI-H358(KRAS^G12C mutation) cells; assay: Cell assay of antiproliferative activity (Celltiter-Glo, 5 days) against NCI-H358 cells; format: cell-based; conditions: 5 days incubation
How it was run: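 Cells plated overnight, then given a 10-point compound series (stock dilutions 50 μM to 0.003 μM, 100 nL added per well) and grown 5 days. Luminescence read after 10 min shaking at room temperature. IC50 from curve fitting.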

[2] = tested on: A549(KRAS^G12S mutation) cells; assay: Cell assay of antiproliferative activity (Celltiter-Glo, 5 days) against A549 cells; format: cell-based; conditions: 5 days incubation
Protocol: Cell assay of antiproliferative activity of compounds against NCI-H358(KRAS^G12C mutation) and A549(KRAS^G12S mutation) cells.
40 μl phosphate buffer was added to the outer wells of the 384 microplate, and 40 μl cell suspension to be tested was added to the other wells. Then the microplate was incubated in a carbon dioxide incubator overnight.
The compounds to be tested were gradiently diluted, each compound was performed 10 concentration gradients (diluted from 50 μM to 0.003 μM) and added 100 nL to the corresponding wells in the microplate. After addition, 40 μl of phosphate buffer was added to each well in rows A and P and columns 1 and 24, and then the microplate was incubated in a carbon dioxide incubator for 5 days.
20 μL of Promega Celltiter-Glo reagent was added to each well of the microplate, and then the luminescence signal was stabilized by oscillating at room temperature for 10 min. Then PekinElmer Envision multi-label analyzer was used to read.
Finally, GraphPad Prism software was used to calculate the IC50 value of the compound and the fitting curve was drawn.
Anti-proliferative activity of the compounds of the present invention against NCI-H358(KRAS^G12C mutation) and A549(KRAS^G12S mutation) cells were shown in Table 1.

## C=CC(=O)N1CCN(c2nc(OCC3(COC)CC3)nc3c2CCN(c2cccc4cccc(Cl)c24)C3)CC1CC#N (stereo not shown) [Example 20, 2-(1-acroloyl-4-(7-(8-chloronaphthalen-1-yl)-2-((1-(methoxymethyl)cyclopropyl)methoxyl)-5,6,7,8-tetrahydropyrido[3,4-d]pyrimidin-4-yl)piperazin-2-yl) acetonitrile]
[1]; Homo sapiens, NCI-H358, 120 h
  IC50: 870 nM
[2]; Homo sapiens, 120 h
  IC50: 7700 nM

## C=CC(=O)N1CCN(c2nc(OC[C@H](C)N(C)CC3CC3)nc3c2CCN(c2cccc4cccc(C)c24)C3)CC1CC#N (stereo partly shown) [Example 74]
[1]; Homo sapiens, NCI-H358, 120 h
  IC50: 80 nM
[2]; Homo sapiens, 120 h
  IC50: 2600 nM

## C=C(F)C(=O)N1CCN(c2nc(OCCN(C)C3CCC3)nc3c2CCN(c2cccc4cccc(Cl)c24)C3)CC1CC#N (stereo not shown) [Example 11, 2-(4-(7-(8-chloronaphthalen-1-yl)-2-(2-(cyclobutyl(methyl)amino)ethoxy)-5,6,7,8-tetrahydropyrido[3,4-d]pyrimidin-4-yl)-1-(2-fluoroacroloyl)piperazin-2-yl) acetonitrile]
[1]; Homo sapiens, NCI-H358, 120 h
  IC50: 110 nM
[2]; Homo sapiens, 120 h
  IC50: 3200 nM

## C=CC(=O)N1CCN(c2nc(OC[C@H](C(C)C)N(C)C3CCC3)nc3c2CCN(c2cccc4cccc(Cl)c24)C3)CC1CC#N (stereo partly drawn) [Example 9, 2-(1-acroloyl-4-(7-(8-chloronaphthalen-1-yl)-2-((S)-2-(cyclobutyl(methyl)amino)-3-methylbutyloxy)-5,6,7,8-tetrahydropyrido[3,4-d]pyrimidin-4-yl)piperazin-2-yl) acetonitrile]
[1]; Homo sapiens, NCI-H358, 120 h
  IC50: 160 nM
[2]; Homo sapiens, 120 h
  IC50: 17700 nM

## C=CC(=O)N1CCN(c2nc(OCCN(C)C3CCC3)nc3c2CCN(c2cccc4cccc(C)c24)C3)CC1CC#N (stereo not shown) [Example 81, 2-(1-acroloyl-4-(2-(2-((cyclobutyl)(methyl)amino)ethoxy)-7-(8-methylnaphthalen-1-yl)-5,6,7,8-tetrahydropyrido[3,4-d]pyrimidin-4-yl)piperazin-2-yl) acetonitrile]
[1]; Homo sapiens, NCI-H358, 120 h
  IC50: 40 nM
[2]; Homo sapiens, 120 h
  IC50: 7500 nM

## C=CC(=O)N1CCN(c2nc(OCC3(CN(C)C)CC3)nc3c2CCN(c2cccc4cccc(Cl)c24)C3)CC1CC#N (stereo not shown) [Example 2, 2-(1-acroloyl-4-(7-(8-chloronaphthalen-1-yl)-2-((1-((dimethylamino)methyl)cyclopropyl)methoxyl)-5,6,7,8-tetrahydropyrido[3,4-d]pyrimidin-4-yl)piperazin-2-yl) acetonitrile]
[1]; Homo sapiens, NCI-H358, 120 h
  IC50: 7.8 nM
[2]; Homo sapiens, 120 h
  IC50: 4300 nM

## C=CC(=O)N1CCN(c2nc(OCCN(C)C3CC3)nc3c2CCN(c2cccc4cccc(C)c24)C3)CC1CC#N (stereo not shown) [Example 70, 2-(1-acroloyl-4-(2-(2-((cyclopropyl)(methyl)amino)ethoxy)-7-(8-methylnaphthalen-1-yl)-5,6,7,8-tetrahydropyrido[3,4-d]pyrimidin-4-yl)piperazin-2-yl) acetonitrile]
[1]; Homo sapiens, NCI-H358, 120 h
  IC50: 170 nM
[2]; Homo sapiens, 120 h
  IC50: 11500 nM

## C=CC(=O)N1CCN(c2nc(O[C@@H]3CCC[C@@H]3N(C)C)nc3c2CCN(c2cccc4cccc(Cl)c24)C3)CC1CC#N (stereo partly drawn) [Example 15, 2-(1-acroloyl-4-(7-(8-chloronaphthalen-1-yl)-2-(((cis)-2-(dimethylamino)cyclopentyl)oxy)-5,6,7,8-tetrahydropyrido[3,4-d]pyrimidin-4-yl)piperazin-2-yl) acetonitrile]
[1]; Homo sapiens, NCI-H358, 120 h
  IC50: 90 nM
[2]; Homo sapiens, 120 h
  IC50: 13500 nM

## C=CC(=O)N1CCN(c2nc(OCCN(C)CC3(F)CC3)nc3c2CCN(c2cccc4cccc(C)c24)C3)CC1CC#N (stereo not shown) [Example 4]
[1]
  IC50: 210 nM
[2]; Homo sapiens, 120 h
  IC50: 9500 nM

## C=CC(=O)N1CCN(c2nc(OC[C@H](CC)N(C)C3CCC3)nc3c2CCN(c2cccc4cccc(Cl)c24)C3)CC1CC#N (stereo partly drawn) [Example 8, 2-(1-acroloyl-4-(7-(8-chloronaphthalen-1-yl)-2-((S)-2-(cyclobutyl (methyl)amino)butyloxy)-5,6,7,8-tetrahydropyrido[3,4-d]pyrimidin-4-yl)piperazin-2-yl) acetonitrile]
[1]; Homo sapiens, NCI-H358, 120 h
  IC50: 130 nM
[2]; Homo sapiens, 120 h
  IC50: 7040 nM

## C=CC(=O)N1CCN(c2nc(OC[C@@H](C)N(C)CC3CC3)nc3c2CCN(c2cccc4cccc(C)c24)C3)CC1CC#N (stereo partly shown) [Example 75]
[1]; Homo sapiens, NCI-H358, 120 h
  IC50: 90 nM
[2]; Homo sapiens, 120 h
  IC50: 2800 nM

## C=CC(=O)N1CCN(c2nc(O[C@H](C)CN(C)CC3CC3)nc3c2CCN(c2cccc4cccc(C)c24)C3)CC1CC#N (stereo partly drawn) [Example 77, 2-(1-acroloyl-4-(2-(((R)-1-((cyclopropylmethyl)(methyl)amino)propan-2-yl)oxy)-7-(8-methylnaphthalen-1-yl)-5,6,7,8-tetrahydropyrido[3,4-d]pyrimidin-4-yl)piperazin-2-yl) acetonitrile]
[1]; Homo sapiens, NCI-H358, 120 h
  IC50: 1800 nM
[2]; Homo sapiens, 120 h
  IC50: 2700 nM

## C=CC(=O)N1CCN(c2nc(OC[C@@H](COC)N(C)C3CCC3)nc3c2CCN(c2cccc4cccc(C)c24)C3)CC1CC#N (stereo partly drawn) [Example 1, 2-(1-acroloyl-4-(2-((R)-2-(cyclobutyl(methyl)amino)-3-methoxypropoxy)-7-(8-methylnaphthalen-1-yl)-5,6,7,8-tetrahydropyrido[3,4-d]pyrimidin-4-yl)piperazin-2-yl) acetonitrile]
[1]; Homo sapiens, NCI-H358, 120 h
  IC50: 220 nM
[2]; Homo sapiens, 120 h
  IC50: 7100 nM

## C=C(F)C(=O)N1CCN(c2nc(OC[C@H](C)N(C)C3CCC3)nc3c2CCN(c2cccc4cccc(Cl)c24)C3)CC1CC#N (stereo partly shown) [Example 12]
[1]; Homo sapiens, NCI-H358, 120 h
  IC50: 140 nM
[2]; Homo sapiens, 120 h
  IC50: 2300 nM

## C=CC(=O)N1CCN(c2nc(OCCN(C)C3COC3)nc3c2CCN(c2cccc4cccc(C)c24)C3)CC1CC#N (stereo not shown) [Example 7, 2-(1-acroloyl-4-(2-(2-(methyl(cyclobutoxy-3-yl)amino)ethyoxyl)-7-(8-methylnaphthalen-1-yl)-5,6,7,8-tetrahydropyrido[3,4-d]pyrimidin-4-yl)piperazin-2-yl) acetonitrile]
[1]; Homo sapiens, NCI-H358, 120 h
  IC50: 72 nM
[2]; Homo sapiens, 120 h
  IC50: 8200 nM

## C=CC(=O)N1CCN(c2nc(OCCN(C)[C@H](C)C3CC3)nc3c2CCN(c2cccc4cccc(C)c24)C3)CC1CC#N (stereo partly drawn) [Example 79, 2-(1-acroloyl-4-(2-(2-(((R)-1-cyclopropylmethyl)(methyl)amino)ethoxy)-7-(8-methylnaphthalen-1-yl)-5,6,7,8-tetrahydropyrido[3,4-d]pyrimidin-4-yl)piperazin-2-yl) acetonitrile]
[1]; Homo sapiens, NCI-H358, 120 h
  IC50: 40 nM
[2]; Homo sapiens, 120 h
  IC50: 3100 nM

## C=CC(=O)N1CCN(c2nc(OCC3(CN(C)C)CCC3)nc3c2CCN(c2cccc4cccc(Cl)c24)C3)CC1CC#N (stereo not shown) [Example 3, 2-(1-acroloyl-4-(7-(8-chloronaphthalen-1-yl)-2-((1-((dimethylamino)methyl)cyclobutyl)methoxyl)-5,6,7,8-tetrahydropyrido[3,4-d]pyrimidin-4-yl)piperazin-2-yl) acetonitrile]
[1]; Homo sapiens, NCI-H358, 120 h
  IC50: 39 nM
[2]; Homo sapiens, 120 h
  IC50: 7100 nM

## C=CC(=O)N1CCN(c2nc(OC[C@H](C)N(C)C3CC3)nc3c2CCN(c2cccc4cccc(C)c24)C3)CC1CC#N (stereo partly drawn) [Example 71, 2-(1-acroloyl-4-(2-((S)-2-(cyclopropyl(methyl)amino)propoxy)-7-(8-methylnaphthalen-1-yl)-5,6,7,8-tetrahydropyrido[3,4-d]pyrimidin-4-yl)piperazin-2-yl) acetonitrile]
[1]; Homo sapiens, NCI-H358, 120 h
  IC50: 150 nM
[2]; Homo sapiens, 120 h
  IC50: 11500 nM

## C=CC(=O)N1CCN(c2nc(O[C@@H](C)CN(C)CC3CC3)nc3c2CCN(c2cccc4cccc(C)c24)C3)CC1CC#N (stereo partly drawn) [Example 76, 2-(1-acroloyl-4-(2-(((S)-1-((cyclopropylmethyl)(methyl)amino)propan-2-yl)oxy)-7-(8-methylnaphthalen-1-yl)-5,6,7,8-tetrahydropyrido[3,4-d]pyrimidin-4-yl)piperazin-2-yl) acetonitrile]
[1]; Homo sapiens, NCI-H358, 120 h
  IC50: 860 nM
[2]; Homo sapiens, 120 h
  IC50: 3500 nM

## C=CC(=O)N1CCN(c2nc(OCCN(C)CC3CCC3)nc3c2CCN(c2cccc4cccc(C)c24)C3)CC1CC#N (stereo not shown) [Example 82, 2-(1-acroloyl-4-(2-(2-((cyclobutylmethyl)(methyl)amino)ethoxy)-7-(8-methylnaphthalen-1-yl)-5,6,7,8-tetrahydropyrido[3,4-d]pyrimidin-4-yl)piperazin-2-yl) acetonitrile]
[1]; Homo sapiens, NCI-H358, 120 h
  IC50: 160 nM
[2]; Homo sapiens, 120 h
  IC50: 6600 nM

## C=CC(=O)N1CCN(c2nc(OCC3(CN(C)C)COC3)nc3c2CCN(c2cccc4cccc(Cl)c24)C3)CC1CC#N (stereo not shown) [Example 19, 2-(1-acroloyl-4-(7-(8-chloronaphthalen-1-yl)-2-((3-((dimethylamino)methyl)oxetan-3-yl)methoxyl)-5,6,7,8-tetrahydropyrido[3,4-d]pyrimidin-4-yl)piperazin-2-yl) acetonitrile]
[1]
  IC50: 4.6 nM
[2]
  IC50: 8900 nM

## C=CC(=O)N1CCN(c2nc(OCCOC3CC3)nc3c2CCN(c2cccc4cccc(C)c24)C3)CC1CC#N (stereo not shown) [Example 93, 2-(1-acroloyl-4-(2-(2-cyclopropoxyethyoxy)-7-(8-methylnaphthalen-1-yl)-5,6,7,8-tetrahydropyrido[3,4-d]pyrimidin-4-yl)piperazin-2-yl) acetonitrile]
[1]; Homo sapiens, NCI-H358, 120 h
  IC50: 310 nM
[2]; Homo sapiens, 120 h
  IC50: 7800 nM

## C=CC(=O)N1CCN(c2nc(OCCN(CCOC)C3CCC3)nc3c2CCN(c2cccc4cccc(Cl)c24)C3)CC1CC#N (stereo not shown) [Example 5]
[1]; Homo sapiens, NCI-H358, 120 h
  IC50: 60 nM
[2]; Homo sapiens, 120 h
  IC50: 7100 nM
